# Source: patent US20230085307A1, “PYRIDAZINONE COMPOUND AND HERBICIDE” (NISSAN CHEMICAL CORPORATION, priority 2019, published 2023)
# Columns and labels:
# velvetleaf [1] = assay: Test Example 5: herbicidal effect by foliage application, plastic box (Table 20, symbol M); assay type: in vivo, velvetleaf (Abutilon theophrasti); details: foliage application, 320 g/ha, three weeks after application
# How it was run: (§1)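 Sow seeds spot-wise in sterilized diluvial soil; cover with ~1.5 cm soil. Grow 14 days in greenhouse, 25° C. to 30° C. Spray foliage with emulsion diluted to predetermined amount. Rate effect after 3 weeks.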
# velvetleaf [2] = assay: Test Example 4: herbicidal effect by soil treatment (Table 19, symbol M); assay type: in vivo, velvetleaf (Abutilon theophrasti); details: amount of applied herbicide 320 g/ha
# How it was run: (§2)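 Soil-surface application: an emulsion agent diluted with water to the predetermined dose is sprayed uniformly over seeds lying under roughly 1.5 cm of sterilized diluvial soil. Boxes stay in a greenhouse at 25° C. to 30° C. Three weeks later, each species is graded on previously defined criteria.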
# wild oat [3] = assay: Test Example 4: herbicidal effect by soil treatment (Table 19, symbol I); assay type: in vivo, wild oat (Avena fatua); details: amount of applied herbicide 320 g/ha
# How it was run: as §2
# green foxtail [4] = assay: Test Example 4: herbicidal effect by soil treatment (Table 19, symbol G); assay type: in vivo, green foxtail (Setaria viridis); details: amount of applied herbicide 320 g/ha
# How it was run: as §2
# persian speedwell [5] = assay: Test Example 4: herbicidal effect by soil treatment (Table 19, symbol R); assay type: in vivo, Persian speedwell (Veronica persica); details: amount of applied herbicide 320 g/ha
# How it was run: as §2
# late watergrass = assay: Test Example 2: herbicidal activity, application during weed generation under submerged conditions (Table 17, symbol A); assay type: in vivo, late watergrass (Echinochloa oryzicola); details: AAH 320 g/ha; application during weed generation, submerged conditions
# How it was run: (§3)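 Mixed weed seedlings in alluvial soil under a 4 cm water layer, greenhouse-grown at 25–30° C. Compound given as a diluted emulsion into the floodwater at the 1–2 leaf stage; response graded after three weeks.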
# Japanese bulrush = assay: Test Example 2: herbicidal activity, application during weed generation under submerged conditions (Table 17, symbol B); assay type: in vivo, Japanese bulrush (Schoenoplectus juncoides); details: AAH 320 g/ha; application during weed generation, submerged conditions
# How it was run: as §3
# Chinese sprangletop = assay: Test Example 3: herbicidal effect by foliage application, Wagner pot (Table 18, symbol D); assay type: in vivo, chinese sprangletop (Leptochloa chinensis); details: 320 g/ha
# How it was run: (§4)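 Plants were sown in alluvial soil held under 0.1–0.5 cm standing water and grown 14 days in a greenhouse at 25–30 °C. An emulsifiable formulation, water-diluted to the set dose, was then sprayed onto the foliage, and effects were scored three weeks later using previously defined criteria.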
# false cleavers [6] = assay: Test Example 4: herbicidal effect by soil treatment (Table 19, symbol Q); assay type: in vivo, false cleavers (Galium spurium); details: amount of applied herbicide 320 g/ha
# How it was run: as §2
# barnyard grass [7] = assay: Test Example 3: herbicidal effect by foliage application, Wagner pot (Table 18, symbol H); assay type: in vivo, barnyard grass (Echinochloa crus-galli); details: 320 g/ha
# How it was run: as §4
# barnyard grass [8] = assay: Test Example 5: herbicidal effect by foliage application, plastic box (Table 20, symbol H); assay type: in vivo, barnyard grass (Echinochloa crus-galli); details: foliage application, 320 g/ha, three weeks after application
# How it was run: as §1
# windgrass [9] = assay: Test Example 5: herbicidal effect by foliage application, plastic box (Table 20, symbol L); assay type: in vivo, windgrass (Apera spica-venti); details: foliage application, 320 g/ha, three weeks after application
# How it was run: as §1
# lambsquarters [10] = assay: Test Example 4: herbicidal effect by soil treatment (Table 19, symbol O); assay type: in vivo, lambsquarters (Chenopodium album); details: amount of applied herbicide 320 g/ha
# How it was run: as §2
# blackgrass [11] = assay: Test Example 5: herbicidal effect by foliage application, plastic box (Table 20, symbol J); assay type: in vivo, blackgrass (Alopecurus myosuroides); details: foliage application, 320 g/ha, three weeks after application
# How it was run: as §1
# redroot pigweed [12] = assay: Test Example 4: herbicidal effect by soil treatment (Table 19, symbol N); assay type: in vivo, redroot pigweed (Amaranthus retroflexus); details: amount of applied herbicide 320 g/ha
# How it was run: as §2
# persian speedwell [13] = assay: Test Example 5: herbicidal effect by foliage application, plastic box (Table 20, symbol R); assay type: in vivo, Persian speedwell (Veronica persica); details: foliage application, 320 g/ha, three weeks after application
# How it was run: as §1
# southern crabgrass [14] = assay: Test Example 5: herbicidal effect by foliage application, plastic box (Table 20, symbol F); assay type: in vivo, southern crabgrass (Digitaria ciliaris); details: foliage application, 320 g/ha, three weeks after application
# How it was run: as §1
# rice flat sedge = assay: Test Example 3: herbicidal effect by foliage application, Wagner pot (Table 18, symbol E); assay type: in vivo, rice flat sedge (Cyperus iria); details: 320 g/ha
# How it was run: as §4
# redroot pigweed [15] = assay: Test Example 5: herbicidal effect by foliage application, plastic box (Table 20, symbol N); assay type: in vivo, redroot pigweed (Amaranthus retroflexus); details: foliage application, 320 g/ha, three weeks after application
# How it was run: as §1
# chickweed [16] = assay: Test Example 4: herbicidal effect by soil treatment (Table 19, symbol P); assay type: in vivo, common chickweed (Stellaria media); details: amount of applied herbicide 320 g/ha
# How it was run: as §2
# blackgrass [17] = assay: Test Example 4: herbicidal effect by soil treatment (Table 19, symbol J); assay type: in vivo, blackgrass (Alopecurus myosuroides); details: amount of applied herbicide 320 g/ha
# How it was run: as §2
# chickweed [18] = assay: Test Example 5: herbicidal effect by foliage application, plastic box (Table 20, symbol P); assay type: in vivo, common chickweed (Stellaria media); details: foliage application, 320 g/ha, three weeks after application
# How it was run: as §1
# wild oat [19] = assay: Test Example 5: herbicidal effect by foliage application, plastic box (Table 20, symbol I); assay type: in vivo, wild oat (Avena fatua); details: foliage application, 320 g/ha, three weeks after application
# How it was run: as §1
# barnyard grass [20] = assay: Test Example 4: herbicidal effect by soil treatment (Table 19, symbol H); assay type: in vivo, barnyard grass (Echinochloa crus-galli); details: amount of applied herbicide 320 g/ha
# How it was run: as §2
# Italian ryegrass [21] = assay: Test Example 4: herbicidal effect by soil treatment (Table 19, symbol K); assay type: in vivo, Italian ryegrass (Lolium multiflorum); details: amount of applied herbicide 320 g/ha
# How it was run: as §2
# lambsquarters [22] = assay: Test Example 5: herbicidal effect by foliage application, plastic box (Table 20, symbol O); assay type: in vivo, lambsquarters (Chenopodium album); details: foliage application, 320 g/ha, three weeks after application
# How it was run: as §1
# southern crabgrass [23] = assay: Test Example 4: herbicidal effect by soil treatment (Table 19, symbol F); assay type: in vivo, southern crabgrass (Digitaria ciliaris); details: amount of applied herbicide 320 g/ha
# How it was run: as §2
# false cleavers [24] = assay: Test Example 5: herbicidal effect by foliage application, plastic box (Table 20, symbol Q); assay type: in vivo, false cleavers (Galium spurium); details: foliage application, 320 g/ha, three weeks after application
# How it was run: as §1
# windgrass [25] = assay: Test Example 4: herbicidal effect by soil treatment (Table 19, symbol L); assay type: in vivo, windgrass (Apera spica-venti); details: amount of applied herbicide 320 g/ha
# How it was run: as §2
# oval-leafed pondweed = assay: Test Example 2: herbicidal activity, application during weed generation under submerged conditions (Table 17, symbol C); assay type: in vivo, oval-leafed pondweed (Monochoria vaginalis); details: AAH 320 g/ha; application during weed generation, submerged conditions
# How it was run: as §3
# green foxtail [26] = assay: Test Example 5: herbicidal effect by foliage application, plastic box (Table 20, symbol G); assay type: in vivo, green foxtail (Setaria viridis); details: foliage application, 320 g/ha, three weeks after application
# How it was run: as §1
# Italian ryegrass [27] = assay: Test Example 5: herbicidal effect by foliage application, plastic box (Table 20, symbol K); assay type: in vivo, Italian ryegrass (Lolium multiflorum); details: foliage application, 320 g/ha, three weeks after application
# How it was run: as §1
smiles,measurement,setting,value
CCCC(=O)Oc1c(C)nn(C)c(=O)c1-c1c(-c2ccc3c(c2)OCO3)sc2ccccc12 [1-088],"herbicidal effect grade, M: velvetleaf",velvetleaf [1],5 (Herbicidal rate of 90% or more (almost completely withered))
same,"herbicidal effect rating, M: velvetleaf",velvetleaf [2],0 (Herbicidal rate of 5% or less (almost no effect))
same,"herbicidal effect rating, I: wild oat",wild oat [3],0 (Herbicidal rate of 5% or less (almost no effect))
same,"herbicidal effect rating, G: green foxtail",green foxtail [4],4 (Herbicidal rate of 70% or more and less than 90%)
same,"herbicidal effect rating, R: persian speedwell",persian speedwell [5],5 (Herbicidal rate of 90% or more (almost completely withered))
same,"herbicidal effect rating, A: late watergrass",late watergrass,1 (Herbicidal rate of 5% or more and less than 20%)
same,"herbicidal effect rating, B: Japanese bulrush",Japanese bulrush,3 (Herbicidal rate of 40% or more and less than 70%)
same,"herbicidal effect on D (Chinese sprangletop), rating 0-5",Chinese sprangletop,3 (Herbicidal rate of 40% or more and less than 70%)
same,"herbicidal effect rating, Q: false cleavers",false cleavers [6],0 (Herbicidal rate of 5% or less (almost no effect))
same,"herbicidal effect on H (barnyard grass), rating 0-5",barnyard grass [7],5 (Herbicidal rate of 90% or more (almost completely withered))
same,"herbicidal effect grade, H: barnyard grass",barnyard grass [8],3 (Herbicidal rate of 40% or more and less than 70%)
same,"herbicidal effect grade, L: windgrass",windgrass [9],0 (Herbicidal rate of 5% or less (almost no effect))
same,"herbicidal effect rating, O: lambsquarters",lambsquarters [10],3 (Herbicidal rate of 40% or more and less than 70%)
same,"herbicidal effect grade, J: blackgrass",blackgrass [11],0 (Herbicidal rate of 5% or less (almost no effect))
same,"herbicidal effect rating, N: redroot pigweed",redroot pigweed [12],0 (Herbicidal rate of 5% or less (almost no effect))
same,"herbicidal effect grade, R: persian speedwell",persian speedwell [13],5 (Herbicidal rate of 90% or more (almost completely withered))
same,"herbicidal effect grade, F: southern crabgrass",southern crabgrass [14],3 (Herbicidal rate of 40% or more and less than 70%)
same,"herbicidal effect on E (rice flat sedge), rating 0-5",rice flat sedge,5 (Herbicidal rate of 90% or more (almost completely withered))
same,"herbicidal effect grade, N: redroot pigweed",redroot pigweed [15],3 (Herbicidal rate of 40% or more and less than 70%)
same,"herbicidal effect rating, P: chickweed",chickweed [16],4 (Herbicidal rate of 70% or more and less than 90%)
same,"herbicidal effect rating, J: blackgrass",blackgrass [17],0 (Herbicidal rate of 5% or less (almost no effect))
same,"herbicidal effect grade, P: chickweed",chickweed [18],5 (Herbicidal rate of 90% or more (almost completely withered))
same,"herbicidal effect grade, I: wild oat",wild oat [19],0 (Herbicidal rate of 5% or less (almost no effect))
same,"herbicidal effect rating, H: barnyard grass",barnyard grass [20],4 (Herbicidal rate of 70% or more and less than 90%)
same,"herbicidal effect rating, K: Italian ryegrass",Italian ryegrass [21],1 (Herbicidal rate of 5% or more and less than 20%)
same,"herbicidal effect grade, O: lambsquarters",lambsquarters [22],3 (Herbicidal rate of 40% or more and less than 70%)
same,"herbicidal effect rating, F: southern crabgrass",southern crabgrass [23],3 (Herbicidal rate of 40% or more and less than 70%)
same,"herbicidal effect grade, Q: false cleavers",false cleavers [24],0 (Herbicidal rate of 5% or less (almost no effect))
same,"herbicidal effect rating, L: windgrass",windgrass [25],0 (Herbicidal rate of 5% or less (almost no effect))
same,"herbicidal effect rating, C: oval-leafed pondweed",oval-leafed pondweed,4 (Herbicidal rate of 70% or more and less than 90%)
same,"herbicidal effect grade, G: green foxtail",green foxtail [26],4 (Herbicidal rate of 70% or more and less than 90%)
same,"herbicidal effect grade, K: Italian ryegrass",Italian ryegrass [27],3 (Herbicidal rate of 40% or more and less than 70%)
